# Experimental data published in EP1763350B1, “NICOTINAMIDE DERIVATIVES AND THEIR USE AS THERAPEUTIC AGENTS” (Xenon Pharmaceuticals Inc., priority 2004, dated 2006).
# “And” between values parts separate entries of the source, which are not always exact repeats. Equal entries are not always repeated.
# Target: T1, SCD (Mus musculus, UniProt P13516)
# T1 construct: from tissue; host or cells: mouse liver microsomes (induced for SCD1 expression)
# T1 sequence (P13516 1-355): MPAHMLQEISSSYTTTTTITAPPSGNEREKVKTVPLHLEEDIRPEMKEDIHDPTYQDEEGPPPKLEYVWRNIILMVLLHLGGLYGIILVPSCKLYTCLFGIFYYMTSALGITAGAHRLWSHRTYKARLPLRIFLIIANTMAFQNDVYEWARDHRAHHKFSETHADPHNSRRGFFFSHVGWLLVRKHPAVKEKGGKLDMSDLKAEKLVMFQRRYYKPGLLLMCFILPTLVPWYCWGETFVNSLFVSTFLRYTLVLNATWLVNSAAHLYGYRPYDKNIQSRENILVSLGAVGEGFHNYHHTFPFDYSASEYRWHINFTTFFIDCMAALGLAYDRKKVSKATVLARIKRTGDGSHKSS
# Experiment: SCD microsomal assay (tritiated stearoyl-CoA, release of labeled water), mouse liver microsomes
# Assay type: biochemical
# Conditions: % remaining SCD activity at 10 µM of test compound, 100 µg, preincubation 15 minutes, desaturation period 15 minutes at ambient temperature
# Text: The identification of compounds of the invention as SCD inhibitors was readily accomplished using the SCD enzyme and microsomal assay procedure described in Brownlie et al, supra.
# The identification of compounds of the invention as SCD inhibitors was readily accomplished using the SCD enzymes and microsomal assay procedure described in Brownlie et al, PCT published patent application, WO 01/62954. Briefly, mouse or human liver microsomes (induced for SCD1 expression and containing cytochrome b5 and cytochrome b5 reductase) and NADH are suspended in buffer with a compound of the invention, and reaction is initiated by addition of 0.025 mM tritiated stearoyl-CoA. This ligand is tritiated at the C9 and C10 position only. The reaction is allowed to proceed for between 5 and 20 minutes at ambient temperature, whereupon it is halted by addition of acid. Activated charcoal is then added, mixed, and centrifuged to separate labeled substrate from labeled water. An aliquot of supernatant is than tested for radioactivity using liquid scintillation counting. This is taken as a measure of delta-9 desaturase activity.
# Compounds were tested in mouse liver microsomes, 100 µg, preincubation with the test compound for 15 minutes at ambient temperature, a desaturation period for 15 minutes at ambient temperature, utilizing the large volume bench-top tube method. TABLE 3. SCD INHIBITORY ACTIVITY FOR SELECTED COMPOUNDS.
SMILES,activity at 10 µM [%],% Activity 10 µM
CCSCCNC(=O)c1ccc(N2CCN(C(=O)c3cc(OC)ccc3Br)CC2)nc1 [6-[4-(2-Bromo-5-methoxy-benzoyl)-piperazin-1-yl]-N-(2-ethylsulfanylethyl)-nicotinamide],1.4,–
CCCCOCCCNC(=O)c1ccc(N2CCN(C(=O)c3ccccc3Br)CC2)nc1 [6-[4-(2-Bromo-benzoyl)-piperazin-1-yl]-N-(3-butoxy-propyl)-nicotinamide],0.8,–
CCC(CC)C(=O)N1CCN(c2ccc(C(=O)NCCC(C)C)cn2)CC1 [6-[4-(2-Ethylbutyryl)-piperazin-1-yl]-N-(3-methylbutyl)-nicotinamide],1.7,–
CCCC(C)NC(=O)c1ccc(N2CCN(C(=O)CCC3CCCCC3)CC2)nc1 (centres unmarked) [6-[4-(3-Cyclohexyl-propionyl)-piperazin-1-yl]-N-(1-methylbutyl)-nicotinamide],2.1,–
CCSCCNC(=O)c1ccc(N2CCN(C(=O)CCC3CCCCC3)CC2)nc1 [6-[4-(3-Cyclohexyl-propionyl)-piperazin-1-yl]-N-(2-ethylsulfanyl-ethyl)-nicotinamide],1.4,–
CC(C)CCNC(=O)c1ccc(N2CCN(C(=O)CCC3CCCCC3)CC2)nc1 [6-[4-(3-Cyclohexyl-propionyl)-piperazin-1-yl]-N-(3-methylbutyl)-nicotinamide],1.3,–
CCSCCNC(=O)c1ccc(N2CCN(C(=O)Cc3ccc(C)cc3)CC2)nc1 [N-(2-Ethylsulfanyl-ethyl)-6-[4-(2-p-tolylacetyl)-piperazin-1-yl]-nicotinamide],1.8,–
"CCCCOCCCNC(=O)c1ccc(N2CCN(C(=O)c3ccc(C)cc3C)CC2)nc1 [N-(3-Butoxy-propyl)-6-[4-(2,4-dimethylbenzoyl)-piperazin-1-yl]-nicotinamide]",0.7,–
Cc1ccccc1CC(=O)N1CCN(c2ccc(C(=O)NCCC(C)C)cn2)CC1 [N-(3-Methyl-butyl)-6-[4-(2-o-tolyl-acetyl)-piperazin-1-yl]-nicotinamide],3.2,–
CCCCNC(=O)c1ccc(N2CCN(C(=O)C(CC)CC)CC2)nc1 [N-Butyl-6-[4-(2-ethylbutyryl)-piperazin-1-yl]-nicotinamide],2,–

# Next, values leading:
activity at 10 µM [%],% Activity 10 µM,SMILES
2.7,–,"CC(CCc1ccccc1)NC(=O)c1ccc(N2CCN(C(=O)c3ccc(Cl)cc3Cl)CC2)nc1 (centres unmarked) [6-[4-(2,4-Dichloro-benzoyl)-piperazin-1-yl]-N-(1-methyl-3-phenyl-propyl)-nicotinamide]"
1.2,–,"CCCCCNC(=O)c1ccc(N2CCN(C(=O)c3ccc(Cl)cc3Cl)CC2)nc1 [6-[4-(2,4-Dichloro-benzoyl)-piperazin-1-yl]-N-pentyl-nicotinamide]"
1.1,–,COc1ccc(Br)c(C(=O)N2CCN(c3ccc(C(=O)NCCc4ccccc4)cn3)CC2)c1 [6-[4-(2-Bromo-5-methoxy-benzoyl)-piperazin-1-yl]-N-phenethylnicotinamide]
1,–,CCOCCCNC(=O)c1ccc(N2CCN(C(=O)c3ccccc3Br)CC2)nc1 [6-[4-(2-Bromo-benzoyl)-piperazin-1-yl]-N-(3-ethoxy-propyl)-nicotinamide]
1.2,–,COCCCNC(=O)c1ccc(N2CCN(C(=O)c3ccccc3Br)CC2)nc1 [6-[4-(2-Bromo-benzoyl)-piperazin-1-yl]-N-(3-methoxy-propyl)-nicotinamide]
0.7,–,CCCCCNC(=O)c1ccc(N2CCN(C(=O)Cc3ccc4ccccc4c3)CC2)nc1 [6-[4-(2-Naphthalen-2-yl-acetyl)-piperazin-1-yl]-N-pentylnicotinamide]
3.6,–,CCC(C(=O)N1CCN(c2ccc(C(=O)NCCCc3ccccc3)cn2)CC1)c1ccccc1 (centres unmarked) [6-[4-(2-Phenyl-butyryl)-piperazin-1-yl]-N-(3-phenyl-propyl)-nicotinamide]
1.8,–,"CC(C)CC(C)NC(=O)c1ccc(N2CCN(C(=O)c3ccccc3C(F)(F)F)CC2)nc1 (centres unmarked) [N-(1,3-Dimethylbutyl)-6-[4-(2-trifluoromethyl-benzoyl)-piperazin-1-yl]-nicotinamide]"
3.4,–,Cc1ccsc1C(=O)N1CCN(c2ccc(C(=O)NC(C)CCc3ccccc3)cn2)CC1 (centres unmarked) [N-(1-Methyl-3-phenyl-propyl)-6-[4-(3-methyl-thiophene-2-carbonyl)-piperazin-1-yl]-nicotinamide]
–,3.9% and 1.3%,O=C(NCCCc1ccccc1)c1ccc(N2CCN(C(=O)c3ccccc3C(F)(F)F)CC2)nc1 [N-(3-Phenyl-propyl)-6-[4-(2-trifluoromethyl-benzoyl)-piperazin-1-yl]-nicotinamide]
